Test results taken from PubChem BioAssay (NCI).
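Five concentrations, 48 hours, 96-well plates. Abbreviation: GI50, concentration required for 50% inhibition of growth. TGI: total growth inhibition.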

Tests used:
Assay in all cases: NCI-60 cell line screen, 48 h
[1] = tested on: SK-OV-3 ovarian
[2] = tested on: COLO 205 colon
[3] = tested on: KM12 colon
[4] = tested on: SNB-19 CNS
[5] = tested on: SN12C renal
[6] = tested on: OVCAR-4 ovarian
[7] = tested on: SR leukemia
[8] = tested on: K-562 leukemia
[9] = tested on: SF-295 CNS
[10] = tested on: OVCAR-8 ovarian

| Structure (SMILES) | TGI [1] [µM] | TGI [2] [µM] | TGI [3] [µM] | TGI [4] [µM] | TGI [5] [µM] | TGI [6] [µM] | TGI [7] [µM] | TGI [8] [µM] | TGI [9] [µM] | TGI [10] [µM] | GI50 [1] [µM] | GI50 [2] [µM] | GI50 [3] [µM] | GI50 [4] [µM] | GI50 [5] [µM] | GI50 [6] [µM] | GI50 [7] [µM] | GI50 [8] [µM] | GI50 [9] [µM] | GI50 [10] [µM] |
| --- | --- | --- | --- | --- | --- | --- | --- | --- | --- | --- | --- | --- | --- | --- | --- | --- | --- | --- | --- | --- |
| CCOC(=O)/C(=C/c1ccc[nH]1)P(=O)(OCC)OCC | > 100 | > 100 | > 100 | > 100 | > 100 | > 100 | > 100 | > 100 | > 100 | > 100 |  |  |  |  |  |  |  |  |  |  |
| ClCc1ccc(Cn2cnc3nc(Cl)nc(Cl)c32)cc1 | 5.7 | > 20.5 | 1.48 |  | 3.15 | 3.03 | > 100 | > 28.8 | 3.27 | 3.66 | 2.36 | 5.66 | 0.677 | 3.01 | 1.41 | 1.57 | 4.16 | 2.52 | 1.75 | 1.84 |
| CN1OC(CO)CC12C1CC3CC(C1)CC2C3 (centres undefined) | > 100 | > 100 | > 100 | > 100 | > 100 | > 100 | > 100 | > 100 | > 100 | > 100 |  |  |  |  |  |  |  |  |  |  |
| CCn1c(SC)nnc1-c1cc2c([nH]c3ccccc32)c(-c2cccc(O)c2)n1 | 6.3 | 27.5 | 44.7 | 47 | 51.4 | 13 | > 100 | > 100 | 5.23 | 24.5 | 2.44 | 9.49 | 3 | 4.16 | 4.44 | 2.75 | 0.34 | 0.547 | 1.83 | 3.62 |
| NC(=O)NC(=O)C1CCC(=O)N1S(=O)(=O)c1ccc(Cl)cc1 (centres undefined) | > 100 | > 100 | > 100 | > 100 | > 100 | > 100 | > 100 | > 100 | > 100 | > 100 |  |  |  |  |  |  |  |  |  |  |
| N#Cc1c(N/N=C/c2c(Cl)cccc2Cl)nc(N)nc1N1CCCC1 | > 100 | > 100 | > 100 | > 100 | > 100 | > 100 | 3.03 | 6.75 | > 100 | 40.5 | 5.12 | 5.29 | 3.02 | 7.14 | 4.68 | > 100 | 0.795 | 2.87 | 1.02 | 3.53 |
| O=C1COc2c(CCNCCN(C(=O)CCNCCc3ccc(Cl)c(Cl)c3)C3CCCCC3)ccc(O)c2N1 | 30.8 | 32.3 | 35.5 | 31 | 30.3 | 28.9 | 33.7 | 34.1 | 30.8 | 34 | 16 | 14.8 | 19 | 15 | 14.7 | 15 | 12.2 | 16.2 | 15.7 | 17.2 |
| CC1=C2[C@@H](c3ccccc3)C3C=CC2(C=C3C(F)(F)F)N(C(=O)NC2CCCCC2)C1=O (some centres undefined) | > 100 | > 100 | > 100 | > 100 | > 100 | > 100 | 66.8 | > 100 | > 100 | > 100 |  |  |  |  |  |  |  |  |  |  |
| COC(=O)C(NC(=O)c1ccccc1)c1ccc(OC)c(I)c1 (centres undefined) | > 100 | > 100 | > 100 | > 100 | > 100 | > 100 | > 100 | > 100 | > 100 | > 100 | 78.2 | 80.8 | > 100 | > 100 | > 100 | 94.2 | 35.2 | 35.6 | 66.4 | > 100 |
| O=C(NCc1cccnc1)c1ccc([N+](=O)[O-])o1 | 14.2 | 1.28 | 5.32 | 8.26 | 4.49 | > 19.8 | > 32.5 | > 32.5 | 7.14 | 14.5 | 4.13 | 0.659 | 1.32 | 2.89 | 1.19 | 6.22 | 1.24 | 2.06 | 2.48 | 2.37 |
| c1csc(-c2[nH]nc3c2CCc2ccccc2-3)c1 | 65.6 | 8.17 | 14.9 | > 65.9 | 30.2 | 37.3 | 66.3 | 68.6 | 38.7 | 56.8 | 24.6 | 0.766 | 0.406 | 13.3 | 14.8 | 2.12 | 21.9 | 22 | 16.4 | 18.7 |
| O=C(COC(=O)[C@H](C[Se][Se]C[C@H](NC(=O)c1ccc(Br)cc1F)C(=O)OCC(=O)c1ccc(F)cc1)NC(=O)c1ccc(Br)cc1F)c1ccc(F)cc1 | 1.31 | 3.95 | 0.793 | 1.63 | 2.98 | 1.54 | > 43.5 | > 26.4 | 0.18 | 1.61 | 0.415 | 1.67 | 0.301 | 0.444 | 1.27 | 0.689 | 0.92 | 2.83 | 0.0511 | 0.408 |
| O=C(CO[N+](=O)[O-])OCC(=O)c1ccccc1 | > 100 | > 100 | > 100 | > 100 | > 100 | > 100 | > 100 | > 100 | > 100 | > 100 |  |  |  |  |  |  |  |  |  |  |
| Clc1ccc(N=CNc2ccc(-c3nc4ccccc4[nH]3)cc2)cc1 | > 100 | > 100 | 18.5 | > 100 | > 100 | > 100 | > 100 | 17.2 | > 100 | > 100 | > 100 | 3.99 | 0.691 | > 100 | > 100 | 48.4 | 39.6 | 1.56 | 6.18 | 64.1 |
